Among the data in DBAASP are MIC values, retold here.

Test systems include Acinetobacter baumannii; Escherichia coli 319238; Escherichia coli BL21; Escherichia coli LEC 001; Klebsiella pneumoniae M6; Pseudomonas syringae; Staphylococcus aureus 15; Bacillus cereus; Candida glabrata 08A802; Escherichia coli; Klebsiella pneumoniae; Nocardia asteroides; Shigella sp.
Holding throughout (assay): ≥ marks a high value that may be exact or a test limit, other limits are often not marked, values filed in µg/mL are converted to µM
Test [1] deals with Acinetobacter baumannii ATCC 17987.
Test [2] has as its system Acinetobacter baumannii AYE.
Test [3] relates to Acinetobacter baumannii NCTC 13302.
The test system of test [4] is Acinetobacter baumannii NCTC 13424.
Test [5] has as its system Acinetobacter baylyi ADP1.
The test system of test [6] is Enterococcus faecalis NCTC 12201.
Test [7] has as its system Enterococcus faecalis NCTC 12204.
Test [8] deals with Enterococcus faecalis NCTC 775.
Test [9] deals with Escherichia coli CFI_160_KPC2.
The subject of test [10] is Escherichia coli CFI_161_NDM.
The test system of test [11] is Escherichia coli NCTC 12923.
Test [12] has as its system Klebsiella pneumoniae NCTC 13368.
Test [13] deals with Pseudomonas aeruginosa NCTC 13437.
In test [14] the test system is Pseudomonas aeruginosa PAO1.
Test [15] has as its system Pseudomonas syringae pv. tomato.
Test [16] concerns Staphylococcus aureus NCTC 9144.
In test [17] the test system is Streptococcus pyogenes GAS M1T1.
Test [18] has as its system Xanthomonas axonopodis pv. phaseoli ATCC 9563.
Test [19] has as its system Xanthomonas axonopodis pv. phaseoli.
Test [20] deals with Candida albicans 08022710.
The subject of test [21] is Candida albicans 08022821.
Test [22] concerns Candida albicans 08030102.
The test system of test [23] is Candida albicans 08030401.
In test [24] the test system is Candida albicans 08030809.
Test [25] has as its system Candida glabrata 09050201.
The test system of test [26] is Enterococcus faecium 1299.
The test system of test [27] is Escherichia coli ATCC 25922.
For test [28], the system named is Salmonella enterica subsp. enterica serovar Paratyphi A.
Test [29] relates to Staphylococcus aureus 08032706.
Test [30] relates to Staphylococcus epidermidis.
The test system of test [31] is Stenotrophomonas maltophilia.
Test [32] deals with Bacillus subtilis CGMCC 1.3376.
Test [33] has as its system Escherichia coli CGMCC 1.8732.
Test [34] deals with Klebsiella pneumoniae CGMCC 1.1736.
In test [35] the test system is Pseudomonas aeruginosa CGMCC 1.2421.
Test [36] concerns Staphylococcus aureus CGMCC 1.8721.
The test system of test [37] is Staphylococcus epidermidis CGMCC 1.4260.

The structures appear in SMILES notation. In brackets after ≈: the same amount, converted by molar mass. Several values for one entry are separate records, joined by “and”; a condition that tells them apart may be missing. Equal entries are not always repeated.

In the case of `CC[C@H](C)[C@H](NC(=O)[C@H](CCCCN)NC(=O)[C@H](CCC(=O)O)NC(=O)[C@H](CCCCN)NC(=O)[C@H](Cc1c[nH]c2ccccc12)NC(=O)[C@H](C)N)C(=O)N[C@@H](CCCN=C(N)N)C(=O)N[C@@H](CCCCN)C(=O)N[C@@H](CCCCN)C(=O)N[C@@H](CC(C)C)C(=O)N[C@@H](CCCCN)C(=O)N[C@@H](CC(N)=O)C(=O)N[C@@H](CCC(=O)O)C(=O)N[C@H](C(=O)N[C@@H](CCCCN)C(=O)N[C@@H](CCCCN)C(=O)N[C@@H](CCCCN)C(=O)N[C@@H](Cc1c[nH]c2ccccc12)C(=O)N[C@@H](CCCN=C(N)N)C(=O)N[C@@H](CCCCN)C(=O)N[C@@H](C)C(=O)N[C@H](C(=O)N[C@H](C(=O)N[C@@H](C)C(=O)N[C@@H](Cc1c[nH]c2ccccc12)C(=O)O)[C@@H](C)CC)C(C)C)[C@@H](C)CC` [AWKEKIRKKLKNEIKKKWRKAVIAW], the MIC in test [1] was 0.315 µM (≈ 1 µg/mL); in test [2], 0.315 µM (≈ 1 µg/mL); in [3], 0.315 µM (≈ 1 µg/mL); in [4], 0.629 µM (≈ 2 µg/mL); with Acinetobacter baumannii it was 0.315 µM (≈ 1 µg/mL); in test [5], 0.629 µM (≈ 2 µg/mL). Moreover, the minimal inhibitory concentration (MIC) is ≥ 40.3 µM in test [6]; 5.03 µM (≈ 16 µg/mL) in [7]; ≥ 40.3 µM in test [8]; 1.26 µM (≈ 4 µg/mL) in the test on Escherichia coli 319238; 2 µM (≈ 6.36 µg/mL) in the test on Escherichia coli BL21; 0.629 µM (≈ 2 µg/mL) in test [9]. Also, the minimal inhibitory concentration (MIC) is 0.315 µM (≈ 1 µg/mL) in test [10]; 2.52 µM (≈ 8 µg/mL) in the test with Escherichia coli LEC 001; 0.157 µM (≈ 0.5 µg/mL) in test [11]; 2.52 µM (≈ 8 µg/mL) against Klebsiella pneumoniae M6; 5.03 µM (≈ 16 µg/mL) in test [12]; ≥ 40.3 µM in [13]. Besides, the minimum inhibitory concentration (MIC) was 8 µM and 5.03 µM in test [14]; 0.0786 µM (≈ 0.25 µg/mL) in test [15]; 8 µM (≈ 25.4 µg/mL) in the test on Pseudomonas syringae; ≥ 40.3 µM in the test on Staphylococcus aureus 15; 2.52 µM (≈ 8 µg/mL) in test [16]; 8 µM (≈ 25.4 µg/mL) in test [17]. The figures for the minimum inhibitory concentration (MIC) in test [18] and in test [19] were 0.25 µM (≈ 0.795 µg/mL) and 0.0786 µM (≈ 0.25 µg/mL), respectively.

`CC[C@H](C)[C@H](NC(=O)[C@H](CO)NC(=O)[C@H](CO)NC(=O)CNC(=O)CNC(=O)CNC(=O)[C@H](C)NC(=O)[C@H](Cc1ccccc1)NC(=O)[C@H](Cc1ccccc1)NC(=O)[C@H](CCCCN)NC(=O)[C@H](CCCCN)NC(=O)[C@H](CC(C)C)NC(=O)[C@H](CCCN=C(N)N)NC(=O)[C@H](CCCN=C(N)N)NC(=O)[C@H](CCSC)NC(=O)[C@H](Cc1ccccc1)NC(=O)[C@H](CCCCN)NC(=O)[C@H](CCCN=C(N)N)NC(=O)[C@H](Cc1ccccc1)NC(=O)CNC(=O)[C@H](CC(N)=O)NC(=O)[C@H](CCCN=C(N)N)NC(=O)[C@@H](N)CCCCN)C(=O)N[C@@H](C)C(=O)N[C@@H](Cc1cnc[nH]1)C(=O)N[C@H](C(=O)N[C@@H](CCCCN)C(=O)N[C@@H](CC(C)C)C(=O)N[C@@H](Cc1cnc[nH]1)C(=O)O)[C@@H](C)CC` [KRNGFRKFMRRLKKFFAGGGSSIAHIKLH]: the MIC against Bacillus cereus came to 2.77 µM (≈ 9.38 µg/mL); in test [20], 11.1 µM (≈ 37.5 µg/mL); in test [21], 11.1 µM (≈ 37.5 µg/mL); in test [22], 5.53 µM (≈ 18.8 µg/mL); in test [23], 11.1 µM (≈ 37.5 µg/mL); in [24], 11.1 µM (≈ 37.5 µg/mL). Besides, the MIC in the test with Candida glabrata 08A802 was found to be 11.1 µM (≈ 37.5 µg/mL); in [25] it was 22.1 µM (≈ 75 µg/mL); in test [26], 5.53 µM (≈ 18.8 µg/mL); in test [27], 11.1 µM (≈ 37.5 µg/mL); against Escherichia coli it was 22.1 µM (≈ 75 µg/mL); against Klebsiella pneumoniae, 22.1 µM (≈ 75 µg/mL). In addition, the MIC against Nocardia asteroides was found to be 11.1 µM (≈ 37.5 µg/mL); in [28], 22.1 µM (≈ 75 µg/mL); in the test on Shigella sp., 0.691 µM (≈ 2.34 µg/mL); in test [29], 22.1 µM (≈ 75 µg/mL); in [30], 22.1 µM (≈ 75 µg/mL); in [31], 2.77 µM (≈ 9.38 µg/mL).

Consider `CC[C@H](C)[C@H](NC(=O)[C@H](CO)NC(=O)CNC(=O)[C@@H](NC(=O)[C@@H](N)CCCN=C(N)N)[C@@H](C)CC)C(=O)N[C@@H](CC(C)C)C(=O)NCC(=O)N[C@@H](CCCN=C(N)N)C(=O)N[C@@H](CC(C)C)C(=O)N[C@@H](C)C(=O)N[C@@H](CCCCN)C(=O)NCC(=O)N[C@@H](CC(C)C)C(=O)N1CCC[C@H]1C(=O)N[C@H](C(=O)N[C@@H](CC(C)C)C(=O)N[C@@H](CCCN=C(N)N)C(=O)N[C@@H](CO)C(=O)N[C@@H](Cc1c[nH]c2ccccc12)C(=O)N[C@H](C(=O)N[C@@H](CCCCN)C(=O)N[C@@H](CC(N)=O)C(=O)N[C@@H](CCCN=C(N)N)C(N)=O)[C@@H](C)CC)[C@@H](C)O` [RIGSILGRLAKGLPTLRSWIKNR], for which the MIC in [32] is 12.5 µM (≈ 32.6 µg/mL); in test [33] it was 12.5 µM (≈ 32.6 µg/mL); in test [34] it was 12.5 µM (≈ 32.6 µg/mL); in test [35], 12.5 µM (≈ 32.6 µg/mL); in test [36], ≥ 100 µM; in [37], 3.13 µM (≈ 8.15 µg/mL).
